Source: ChEMBL document CHEMBL6182948 (J Med Chem, 2025)

Tests used:
[1] = Stability in human plasma assessed as compound remaining at 100 uM measured after 120 mins by LC-MS/MS analysis; format: ADME, cell-free; conditions: read-out: Stability
[2] = Cytotoxicity against HUVEC assessed as inhibition of cell viability incubated for 48 hrs by CellTiter Glo assay; format: toxicity, cell-based; conditions: human, HUVEC cells
CYP2C19 = CYP2C19 (Homo sapiens, UniProt P33261); experiment: Inhibition of CYP2C19 in human liver microsome at 10 uM pre-incubated with compound for 5 mins followed NADPH addition and measured after 30 mins by LC-MS/MS analysis relative to control; format: ADME; conditions: liver microsomes, time 35 min
CYP2C19, sequence (P33261 whole entry): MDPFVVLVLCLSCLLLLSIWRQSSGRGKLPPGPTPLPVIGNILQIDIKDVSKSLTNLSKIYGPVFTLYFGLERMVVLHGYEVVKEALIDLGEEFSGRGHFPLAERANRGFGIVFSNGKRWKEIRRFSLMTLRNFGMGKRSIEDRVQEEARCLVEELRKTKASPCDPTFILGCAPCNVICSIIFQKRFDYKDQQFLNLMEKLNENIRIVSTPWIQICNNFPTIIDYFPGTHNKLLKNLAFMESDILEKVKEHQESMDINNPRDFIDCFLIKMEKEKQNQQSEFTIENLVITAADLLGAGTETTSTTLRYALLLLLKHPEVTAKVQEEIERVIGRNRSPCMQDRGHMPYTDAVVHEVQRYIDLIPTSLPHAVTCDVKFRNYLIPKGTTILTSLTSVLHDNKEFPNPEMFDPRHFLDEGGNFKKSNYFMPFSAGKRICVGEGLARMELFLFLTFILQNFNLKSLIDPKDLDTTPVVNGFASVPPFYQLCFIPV

A549/TR = experiment: Reversal of drug resistance in human A549/Taxol cells assessed as increase in paclitaxel-induced cytotoxicity incubated for 48 hrs by CCK-8 assay; format: functional, cell-based; conditions: dose 2.5-10 µM
Cytochrome P450 1B1 = molecular target: T1, Cytochrome P450 1B1 (Homo sapiens, UniProt Q16678); experiment: Inhibition of human recombinant CYP1B1 using 7-ethoxyresorufin as substrate incubated under dark condition for 30 mins in presence of NADPH by EROD fluorescence assay; format: ADME
T1 sequence (Q16678 whole entry): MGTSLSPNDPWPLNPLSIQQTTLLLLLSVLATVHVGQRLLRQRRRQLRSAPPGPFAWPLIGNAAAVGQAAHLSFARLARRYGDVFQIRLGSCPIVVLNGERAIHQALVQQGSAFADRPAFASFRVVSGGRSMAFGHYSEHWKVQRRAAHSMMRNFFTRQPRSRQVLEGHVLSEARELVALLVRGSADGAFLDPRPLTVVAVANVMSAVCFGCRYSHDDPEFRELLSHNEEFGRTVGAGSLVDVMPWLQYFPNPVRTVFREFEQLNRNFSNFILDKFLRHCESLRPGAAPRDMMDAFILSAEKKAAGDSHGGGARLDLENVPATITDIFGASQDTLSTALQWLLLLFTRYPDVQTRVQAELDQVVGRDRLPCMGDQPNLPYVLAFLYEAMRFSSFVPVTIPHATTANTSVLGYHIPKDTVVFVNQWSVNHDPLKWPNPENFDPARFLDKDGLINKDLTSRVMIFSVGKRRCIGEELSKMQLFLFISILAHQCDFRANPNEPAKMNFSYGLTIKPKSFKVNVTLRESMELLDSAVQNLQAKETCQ

[3] = Metabolic stability in liver microsomes (unknown origin) assessed as compound remaining at 0.5 mg/ml measured after 15 mins in presence of NADPH regenerating system by LC-MS/MS analysis relative to control; format: ADME, Microsome; conditions: read-out: Stability
[4] = Metabolic stability in liver microsomes (unknown origin) assessed as compound remaining at 0.5 mg/ml measured after 5 mins in presence of NADPH regenerating system by LC-MS/MS analysis relative to control; format: ADME, Microsome; conditions: read-out: Stability
[5] = Metabolic stability in liver microsomes (unknown origin) assessed as half life at 0.5 mg/ml measured up to 60 mins by LC-MS/MS analysis; format: ADME, Microsome
Homo sapiens = organism: Homo sapiens; experiment: Selectivity index, ratio of IC50 for human recombinant CYP1A1 to IC50 for human recombinant CYP1B1 using 7-ethoxyresorufin as substrate
Cytochrome P450 1A2 = molecular target: T2, Cytochrome P450 1A2 (Homo sapiens, UniProt P05177); experiment: Inhibition of human recombinant CYP1A2 using 7-ethoxyresorufin as substrate incubated under dark condition for 45 mins in presence of NADPH by EROD fluorescence assay; format: ADME
T2 sequence (P05177 whole entry): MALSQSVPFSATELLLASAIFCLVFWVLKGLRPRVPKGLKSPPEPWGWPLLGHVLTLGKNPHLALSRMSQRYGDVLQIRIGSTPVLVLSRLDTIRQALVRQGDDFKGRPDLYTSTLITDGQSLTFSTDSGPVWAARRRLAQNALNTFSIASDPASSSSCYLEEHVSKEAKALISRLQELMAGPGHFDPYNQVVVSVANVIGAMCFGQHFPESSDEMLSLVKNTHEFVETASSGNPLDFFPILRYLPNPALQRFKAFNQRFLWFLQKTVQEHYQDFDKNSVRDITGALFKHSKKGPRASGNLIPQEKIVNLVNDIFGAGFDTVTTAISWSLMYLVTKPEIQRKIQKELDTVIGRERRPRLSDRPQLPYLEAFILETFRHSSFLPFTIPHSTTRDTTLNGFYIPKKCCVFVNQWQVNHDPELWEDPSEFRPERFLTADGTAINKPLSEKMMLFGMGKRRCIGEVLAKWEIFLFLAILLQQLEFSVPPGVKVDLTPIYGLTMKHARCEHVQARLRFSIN

[6] = Stability in human plasma assessed as compound remaining at 100 uM measured immediately by LC-MS/MS analysis; format: ADME, cell-free; conditions: read-out: Stability
[7] = Stability in human plasma assessed as half life at 100 uM measured up to 120 mins by LC-MS/MS analysis; format: ADME, cell-free
CYP2C9 = CYP2C9 (Homo sapiens, UniProt P11712); experiment: Inhibition of CYP2C9 in human liver microsome at 10 uM pre-incubated with compound for 5 mins followed NADPH addition and measured after 10 mins by LC-MS/MS analysis relative to control; format: ADME; conditions: liver microsomes, time 15 min
CYP2C9, sequence (P11712 whole entry): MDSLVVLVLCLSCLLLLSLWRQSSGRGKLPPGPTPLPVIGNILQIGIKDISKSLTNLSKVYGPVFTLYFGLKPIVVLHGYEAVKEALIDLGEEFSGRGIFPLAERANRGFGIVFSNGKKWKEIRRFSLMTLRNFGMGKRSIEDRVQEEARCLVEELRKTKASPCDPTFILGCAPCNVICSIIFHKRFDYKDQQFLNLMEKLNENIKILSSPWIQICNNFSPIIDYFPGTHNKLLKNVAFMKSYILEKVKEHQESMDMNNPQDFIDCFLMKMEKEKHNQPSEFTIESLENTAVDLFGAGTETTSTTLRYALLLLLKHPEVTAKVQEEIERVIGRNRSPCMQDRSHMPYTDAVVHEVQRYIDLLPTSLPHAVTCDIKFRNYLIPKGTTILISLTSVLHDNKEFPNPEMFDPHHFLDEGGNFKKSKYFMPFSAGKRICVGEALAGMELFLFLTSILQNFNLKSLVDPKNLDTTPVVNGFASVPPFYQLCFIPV

Cytochrome P450 3A4 = Cytochrome P450 3A4 (Homo sapiens, UniProt P08684); experiment: Inhibition of CYP3A4 in human liver microsome pre-incubated with compound for 5 mins followed NADPH addition and measured after 5 mins by LC-MS/MS analysis; format: ADME, microsomes
Cytochrome P450 3A4, sequence (P08684 whole entry): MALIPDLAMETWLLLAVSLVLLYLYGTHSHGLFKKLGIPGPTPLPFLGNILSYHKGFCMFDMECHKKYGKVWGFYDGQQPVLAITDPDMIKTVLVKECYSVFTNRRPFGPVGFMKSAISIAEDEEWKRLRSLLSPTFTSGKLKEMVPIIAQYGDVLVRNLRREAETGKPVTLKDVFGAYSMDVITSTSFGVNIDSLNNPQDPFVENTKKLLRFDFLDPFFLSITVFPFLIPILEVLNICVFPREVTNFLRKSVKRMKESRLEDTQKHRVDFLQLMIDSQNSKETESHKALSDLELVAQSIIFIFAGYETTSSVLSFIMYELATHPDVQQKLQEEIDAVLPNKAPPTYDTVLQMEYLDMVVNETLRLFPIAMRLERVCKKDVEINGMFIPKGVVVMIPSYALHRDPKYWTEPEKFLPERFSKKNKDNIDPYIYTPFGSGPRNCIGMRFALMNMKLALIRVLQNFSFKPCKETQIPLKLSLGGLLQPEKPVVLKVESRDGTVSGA

A549 = experiment: Antiproliferative against human A549 cells assessed as inhibition of cell viability incubated for 48 hrs by CCK-8 assay; format: functional, cell-based; conditions: A549, 48 h
[8] = Stability in human plasma assessed as compound remaining at 100 uM measured after 60 mins by LC-MS/MS analysis; format: ADME, cell-free; conditions: read-out: Stability
[9] = Stability in human plasma assessed as compound remaining at 100 uM measured after 15 mins by LC-MS/MS analysis; format: ADME, cell-free; conditions: read-out: Stability
[10] = Metabolic stability in liver microsomes (unknown origin) assessed as compound remaining at 0.5 mg/ml measured immediately in presence of NADPH regenerating system by LC-MS/MS analysis relative to control; format: ADME, Microsome; conditions: read-out: Stability
[11] = Cytotoxicity against human BEAS-2B cells assessed as inhibition of cell viability incubated for 48 hrs by CCK-8 assay; format: toxicity, cell-based
[12] = Stability in human plasma assessed as compound remaining at 100 uM measured after 30 mins by LC-MS/MS analysis; format: ADME, cell-free; conditions: read-out: Stability
[13] = Stability in human plasma assessed as compound remaining at 100 uM measured after 5 mins by LC-MS/MS analysis; format: ADME, cell-free; conditions: read-out: Stability
CYP3A4 = CYP3A4 (Homo sapiens, UniProt P08684); experiment: Inhibition of CYP3A4 in human liver microsome at 10 uM pre-incubated with compound for 5 mins followed NADPH addition and measured after 5 mins by LC-MS/MS analysis relative to control; format: ADME; conditions: liver microsomes, time 10 min
CYP3A4, sequence (P08684 whole entry): as above

CYP2D6 = CYP2D6 (Homo sapiens, UniProt P10635); experiment: Inhibition of CYP2D6 in human liver microsome at 10 uM pre-incubated with compound for 5 mins followed NADPH addition and measured after 10 mins by LC-MS/MS analysis relative to control; format: ADME; conditions: liver microsomes, time 15 min
CYP2D6, sequence (P10635 whole entry): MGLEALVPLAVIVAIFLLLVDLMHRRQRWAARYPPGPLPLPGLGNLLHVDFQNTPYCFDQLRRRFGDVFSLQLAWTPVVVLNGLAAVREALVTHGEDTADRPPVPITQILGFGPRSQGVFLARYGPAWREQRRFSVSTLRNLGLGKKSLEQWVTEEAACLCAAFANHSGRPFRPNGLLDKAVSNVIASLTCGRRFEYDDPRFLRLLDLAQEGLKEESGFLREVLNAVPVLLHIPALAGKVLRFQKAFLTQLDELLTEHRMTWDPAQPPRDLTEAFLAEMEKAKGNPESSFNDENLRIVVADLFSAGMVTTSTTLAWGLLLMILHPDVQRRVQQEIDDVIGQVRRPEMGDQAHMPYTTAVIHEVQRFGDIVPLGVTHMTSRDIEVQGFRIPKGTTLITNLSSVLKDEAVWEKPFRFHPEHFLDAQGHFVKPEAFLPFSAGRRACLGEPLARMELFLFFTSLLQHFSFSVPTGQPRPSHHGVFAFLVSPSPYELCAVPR

remaining at 2 h, 100 µM [1] [%]	inhibition at 0.5 h, 10 µM (CYP2C19) [%]	IC50 (Cytochrome P450 1B1) [nM]	remaining at 0.25 h [3] [%]	remaining at 5 min [4] [%]	half-life [5] [h]	Ratio IC50 (Homo sapiens)	IC50 (Cytochrome P450 1A2) [µM]	remaining at 0 min, 100 µM [6] [%]	half-life at 100 µM [7] [h]	inhibition at 10 min, 10 µM (CYP2C9) [%]	IC50 (Cytochrome P450 3A4) [µM]	IC50 (A549) [µM]	remaining at 1 h, 100 µM [8] [%]	remaining at 0.25 h, 100 µM [9] [%]	remaining at 0 min [10] [%]	remaining at 0.5 h, 100 µM [12] [%]	Compound	IC50 at 48 h [2] [µM]	Activity (A549/TR)	IC50 at 48 h [11] [µM]	other results
93.9	7.73	1.48	102	99.5	> 1	> 67500	> 80	100	> 2	2.21	> 10	7.5	96.1	104	100	106	O=C(Nc1cc(Cl)cc(Cl)c1)c1nc(-c2cccc(Cl)c2)cs1	> 40	Dose-dependent-effect	> 20	remaining at 5 min, 100 µM [13]: 87.1%; inhibition at 5 min, 10 µM (CYP3A4): 0.94%; inhibition at 10 min, 10 µM (CYP2D6): 0%
93.4	60.8	0.05	80.4	93.1	1.17	1550	> 10	100	> 2	17.4	2.97	> 20	100	94.2	100	110	N#Cc1ccc(-c2csc(C(=O)Nc3ccc(C(F)(F)F)cc3)n2)cc1	> 40	Dose-dependent-effect	> 20	remaining at 5 min, 100 µM [13]: 99%; inhibition at 5 min, 10 µM (CYP3A4): 77.1%; inhibition at 10 min, 10 µM (CYP2D6): 23.1%
103	1.45	1.77	101	93.8	> 1	> 56400	> 100	100	> 2	2.21	1.55	> 20	114	102	100	116	N#Cc1ccc(-c2csc(C(=O)Nc3cc(Cl)cc(Cl)c3)n2)cc1	> 40	Dose-dependent-effect; Compound Showed Robust Reversal Activity	> 20	remaining at 5 min, 100 µM [13]: 106%; inhibition at 5 min, 10 µM (CYP3A4): 86.6%; inhibition at 10 min, 10 µM (CYP2D6): 0%
